# Measurements reported in patent publication US11771648B2, “Carrier for oromucosal administration of physiologically active substances” (INSTAR TECHNOLOGIES A.S., priority 2011, dated 2023).
# Assay: solubility in water (stated in words, no method described)
# Assay type: physicochemical
# Conditions: qualitative statement
row,Compound,solubility in water
1,"CNS(=O)(=O)Cc1ccc2[nH]cc(CCN(C)C)c2c1 [Sumatriptane, 1-[3-(2-dimethylaminoethyl)-1H-indol-5-yl]-N-methyl-methanesulfonamide]",good solubility in water
2,"COc1ccc2cc(CCC(C)=O)ccc2c1 [Nabumetone, 4-(6-methoxy-2-nafthyl)-2-butanon]",very well soluble in water
